From patent US7138361B2, “Herbicidal heterocycles” (E. I. du Pont de Nemours and Company, priority 2000, dated 2006)

Columns and labels:
Assay type in all cases: in vivo
[1] = system: smallflower flatsedge (Cyperus difformis); experiment: Test C flooded paddy test; conditions: for Flatsedge plant response rating: Flooded Paddy, scale 0 to 100, 0 no effect, 100 complete control; for Plant response rating, Flatsedge: flooded paddy test, scale 0 to 100 (0 no effect, 100 complete control)
Outline: (§1)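 Rice and three paddy weeds were grown to the 2-leaf stage under flooded conditions, then treated and kept in a greenhouse for 12–14 days. Response was rated visually against untreated controls on a 0–100 scale, where 100 is complete control.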

[2] = system: duck salad (Heteranthera limosa); experiment: Test C flooded paddy test; conditions: for Ducksalad plant response rating: Flooded Paddy, scale 0 to 100, 0 no effect, 100 complete control; for Plant response rating, Ducksalad: flooded paddy test, scale 0 to 100 (0 no effect, 100 complete control)
Outline: as §1

[3] = system: rice (Oryza saliva); experiment: Test C flooded paddy test; conditions: for Rice plant response rating: Flooded Paddy, scale 0 to 100, 0 no effect, 100 complete control; for Plant response rating, Rice: flooded paddy test, scale 0 to 100 (0 no effect, 100 complete control)
Outline: as §1

[4] = system: barnyardgrass (Echinochloa crus-galli); experiment: Test C flooded paddy test; conditions: for Barnyardgrass plant response rating: Flooded Paddy, scale 0 to 100, 0 no effect, 100 complete control; for Plant response rating, Barnyardgrass: flooded paddy test, scale 0 to 100 (0 no effect, 100 complete control)
Outline: as §1

[5] = system: Sunflower; experiment: Test C preemergence; conditions: scale 0 to 100, 0 no effect, 100 complete control
[6] = system: morning glory (Ipomoea hederacea); experiment: Test B postemergence
Outline: (§2)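 Preemergence: seeds planted and treated with test chemicals in non-phytotoxic solvent with surfactant; postemergence on plants 2–18 cm (1- to 4-leaf stage). Kept in greenhouse 13–15 days, then visually rated against controls on a 0 (no effect) to 100 (complete control) scale.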

[7] = system: pigweed (Amaranthus retroflexus); experiment: Test B postemergence
Outline: as §2

[8] = system: velvetleaf (Abutilon theophrasti); experiment: Test B postemergence
Outline: as §2

[9] = system: wheat (Triticum aestivum); experiment: Test B postemergence
Outline: as §2

[10] = system: blackgrass (Alopecurus myosuroides); experiment: Test B postemergence
Outline: as §2

[11] = system: barnyardgrass (Echinochloa crus-galli); experiment: Test B postemergence
Outline: as §2

[12] = system: giant foxtail (Setaria faberii); experiment: Test B postemergence
Outline: as §2

[13] = system: Surinam grass (Brachiaria decumbens); experiment: Test B postemergence
Outline: as §2

[14] = system: corn (Zea mays); experiment: Test B postemergence
Outline: as §2

[15] = system: morning glory (Ipomoea hederacea); experiment: Test B preemergence
Outline: as §2

[16] = system: pigweed (Amaranthus retroflexus); experiment: Test B preemergence
Outline: as §2

[17] = system: cocklebur (Xanthium strumarium); experiment: Test B preemergence
Outline: as §2

[18] = system: velvetleaf (Abutilon theophrasti); experiment: Test B preemergence
Outline: as §2

[19] = system: lambsquarters (Chenopodium album); experiment: Test B preemergence
Outline: as §2

[20] = system: crabgrass (Digitaria sanguinalis); experiment: Test B preemergence
Outline: as §2

[21] = system: rice (Oryza saliva); experiment: Test B preemergence
Outline: as §2

[22] = system: barnyardgrass (Echinochloa crus-galli); experiment: Test B preemergence
Outline: as §2

[23] = system: giant foxtail (Setaria faberii); experiment: Test B preemergence
Outline: as §2

[24] = system: Surinam grass (Brachiaria decumbens); experiment: Test B preemergence
Outline: as §2

[25] = system: corn (Zea mays); experiment: Test B preemergence
Outline: as §2

[26] = system: Nightshade; experiment: Test C preemergence; conditions: Rate 500 g/ha, visual evaluation after 12 to 14 days
[27] = Rate 125 g/ha, scale 0 to 100, 0 no effect, 100 complete control
[28] = Rate 500 g/ha, scale 0 to 100, 0 is no effect, 100 is complete control, 13 to 15 days
[29] = Preemergence, Rate 500 g/ha, scale 0 to 100, 0 no effect, 100 complete control
[30] = preemergence, Rate 125 g/ha, scale of 0 to 100 where 0 is no effect and 100 is complete control, 13 to 15 days
[31] = Rate 125 g/ha, scale 0 (no effect) to 100 (complete control), 13 to 15 days

SMILES: CC(C)c1cccc(N2CCC(n3ccc(C(C)(C)C)n3)C2=O)c1 (stereo not drawn) [Compound 111]
- Flatsedge plant response rating ([1]; Rate 250 g/ha): 90
- Flatsedge plant response rating ([1]; Rate 500 g/ha): 90
- Plant response rating, Flatsedge ([1]; Rate 62 g/ha): 50
- Plant response rating, Flatsedge ([1]; Rate 125 g/ha): 60
- Ducksalad plant response rating ([2]; Rate 250 g/ha): 0
- Ducksalad plant response rating ([2]; Rate 500 g/ha): 0
- Plant response rating, Ducksalad ([2]; Rate 62 g/ha): 0
- Plant response rating, Ducksalad ([2]; Rate 125 g/ha): 0
- Rice plant response rating ([3]; Rate 250 g/ha): 0
- Rice plant response rating ([3]; Rate 500 g/ha): 0
- Plant response rating, Rice ([3]; Rate 62 g/ha): 0
- Plant response rating, Rice ([3]; Rate 125 g/ha): 0
- Barnyardgrass plant response rating ([4]; Rate 250 g/ha): 20
- Barnyardgrass plant response rating ([4]; Rate 500 g/ha): 30
- Plant response rating, Barnyardgrass ([4]; Rate 62 g/ha): 0
- Plant response rating, Barnyardgrass ([4]; Rate 125 g/ha): 0
- Plant response rating, Sunflower ([5]; Rate 250 g/ha): 0
- Plant response rating, Morningglory [6, 27]: 0
- Plant response rating, Morningglory [6, 28]: 0
- Plant response rating, Pigweed [7, 27]: 0
- Plant response rating, Pigweed [7, 28]: 0
- Plant response rating, Velvetleaf [8, 27]: 0
- Plant response rating, Velvetleaf [8, 28]: 0
- Plant response rating, Wheat [9, 27]: 20
- Plant response rating, Wheat [9, 28]: 20
- Plant response rating, Blackgrass [10, 27]: 0
- Plant response rating, Blackgrass [10, 28]: 20
- Plant response rating, Barnyardgrass [11, 27]: 0
- Plant response rating, Barnyardgrass [11, 28]: 0
- Plant response rating, Foxtail, Giant [12, 27]: 0
- Plant response rating, Foxtail, Giant [12, 28]: 0
- Plant response rating, Surinam grass [13, 27]: 0
- Plant response rating, Surinam grass [13, 28]: 40
- Plant response rating, Corn [14, 27]: 0
- Plant response rating, Corn [14, 28]: 0
- Plant response rating, Morningglory [15, 29]: 0
- Plant response rating, Morningglory [15, 30]: 0
- Plant response rating, Pigweed [16, 29]: 100
- Plant response rating, Pigweed [16, 30]: 0
- Plant response rating, Cocklebur [17, 29]: 0
- Plant response rating, Cocklebur [17, 30]: 0
- Plant response rating, Velvetleaf [18, 29]: 0
- Plant response rating, Velvetleaf [18, 30]: 0
- Plant response rating, Lambsquarters [19, 29]: 100
- Plant response rating, Lambsquarters [19, 30]: 30
- Plant response rating, Crabgrass [20, 29]: 100
- Plant response rating, Crabgrass [20, 30]: 70
- Plant response rating, Rice [21, 29]: 0
- Plant response rating, Rice [21, 30]: 0
- Plant response rating, Barnyardgrass [22, 29]: 100
- Plant response rating, Barnyardgrass [22, 30]: 0
- Plant response rating, Foxtail, Giant [23, 29]: 0
- Plant response rating, Foxtail, Giant [23, 30]: 0
- Plant response rating, Surinam grass [24, 29]: 0
- Plant response rating, Surinam grass [24, 30]: 0
- Plant response rating, Corn [25, 29]: 30
- Plant response rating, Corn [25, 30]: 0
- Plant response rating (0 to 100), Nightshade [26]: 0

SMILES: CCOC(=O)c1cccc(N2CCC(n3ccc(C(C)(C)C)n3)C2=O)c1 (stereo not drawn) [Compound 72]
- Flatsedge plant response rating ([1]; Rate 250 g/ha): 90
- Flatsedge plant response rating ([1]; Rate 500 g/ha): 100
- Plant response rating, Flatsedge ([1]; Rate 62 g/ha): 60
- Plant response rating, Flatsedge ([1]; Rate 125 g/ha): 90
- Ducksalad plant response rating ([2]; Rate 250 g/ha): 90
- Ducksalad plant response rating ([2]; Rate 500 g/ha): 90
- Plant response rating, Ducksalad ([2]; Rate 62 g/ha): 40
- Plant response rating, Ducksalad ([2]; Rate 125 g/ha): 80
- Rice plant response rating ([3]; Rate 250 g/ha): 40
- Rice plant response rating ([3]; Rate 500 g/ha): 50
- Plant response rating, Rice ([3]; Rate 62 g/ha): 0
- Plant response rating, Rice ([3]; Rate 125 g/ha): 20
- Barnyardgrass plant response rating ([4]; Rate 250 g/ha): 50
- Barnyardgrass plant response rating ([4]; Rate 500 g/ha): 80
- Plant response rating, Barnyardgrass ([4]; Rate 62 g/ha): 0
- Plant response rating, Barnyardgrass ([4]; Rate 125 g/ha): 50
- Plant response rating, Sunflower ([5]; Rate 125 g/ha): 20
- Plant response rating, Sunflower ([5]; Rate 250 g/ha): 20
- Plant response rating, Morningglory [6, 31]: 20
- Plant response rating, Morningglory [6, 28]: 50
- Plant response rating, Pigweed [7, 31]: 20
- Plant response rating, Pigweed [7, 28]: 60
- Plant response rating, Velvetleaf [8, 31]: 30
- Plant response rating, Velvetleaf [8, 28]: 60
- Plant response rating, Wheat [9, 31]: 0
- Plant response rating, Wheat [9, 28]: 0
- Plant response rating, Blackgrass [10, 31]: 0
- Plant response rating, Blackgrass [10, 28]: 0
- Plant response rating, Barnyardgrass [11, 31]: 30
- Plant response rating, Barnyardgrass [11, 28]: 70
- Plant response rating, Foxtail, Giant [12, 31]: 0
- Plant response rating, Foxtail, Giant [12, 28]: 50
- Plant response rating, Surinam grass [13, 31]: 0
- Plant response rating, Surinam grass [13, 28]: 0
- Plant response rating, Corn [14, 31]: 0
- Plant response rating, Corn [14, 28]: 0
- Plant response rating, Morningglory [15, 29]: 90
- Plant response rating, Morningglory [15, 30]: 0
- Plant response rating, Pigweed [16, 29]: 100
- Plant response rating, Pigweed [16, 30]: 100
- Plant response rating, Cocklebur [17, 29]: 60
- Plant response rating, Cocklebur [17, 30]: 0
- Plant response rating, Velvetleaf [18, 29]: 90
- Plant response rating, Velvetleaf [18, 30]: 0
- Plant response rating, Lambsquarters [19, 29]: 100
- Plant response rating, Lambsquarters [19, 30]: 100
- Plant response rating, Crabgrass [20, 29]: 100
- Plant response rating, Crabgrass [20, 30]: 100
- Plant response rating, Rice [21, 29]: 0
- Plant response rating, Rice [21, 30]: 0
- Plant response rating, Barnyardgrass [22, 29]: 100
- Plant response rating, Barnyardgrass [22, 30]: 100
- Plant response rating, Foxtail, Giant [23, 29]: 100
- Plant response rating, Foxtail, Giant [23, 30]: 100
- Plant response rating, Surinam grass [24, 29]: 70
- Plant response rating, Surinam grass [24, 30]: 0
- Plant response rating, Corn [25, 29]: 0
- Plant response rating, Corn [25, 30]: 0
- Plant response rating (0 to 100), Nightshade [26]: 60
